Assay results published in patent US20070287676A1, “Diagnosis and treatment of endometriosis” (priority 2006, published 2007).

Assays:
endometriotic cells = test: Suppression of growth and inflammation of endometriotic cells; type: cell-based; conditions: used alone
[1] = tested on: YHES cells (immortalized human endometrial stromal cell line); test: MTT cell proliferation assay in YHES cells; type: cell-based; conditions: 48 hr; for increased cell proliferation: E2 and P pretreated, vs control
Description: An immortalized human endometrial stromal cell line was maintained following Krikun et al. (Krikun et al. 2004 Endocrinology 145:2291-6). Cells were maintained in phenol red-free DMEM/F12 (Gibco, CA) medium supplemented with 10% charcoal-dextran stripped FBS (Biomeda, CA), 1 μl/ml sodium pyruvate (Gibco, CA) and 1× Pen/Strep/Fungizone (Gibco, CA), at 37° C. with 5% C02 in a humidified incubator.
(§1) The YHES cells were harvested by trypsinization and seeded in 96-well plate at ˜1×10^4 cells/well. The cells were allowed to attach to the plate for overnight at 37° C. with 5% C02 in a humidified incubator. Then they were pretreated with physiological concentration of E2 (10^-9M) and P (10^-7M) for 24 hr to maintain hormonal responsiveness. […] Cell growth was valuated by the MTT assay (ATCC, Manassas, Va.). MTT assay was performing according to the manufacturer's instructions, and in triplicate to generate mean values. Cell numbers in the untreated control were arbitrarily assigned as 1. The relative cell growth was expressed as fold increase/decrease relative to the control. Data were presented as mean values from three independently repeated experiments.

YHES cells = test: Long-term culture and morphology after treatment; type: cell-based, human; conditions: for recovery judged by morphology: four weeks after the treatment, TSA and RU486 at 100 μM
Description: The micrographs of the first two rows were taken using 20× magnification, and those of the third row were taken using 10× magnification. The micrographs of the first row and the first two micrographs of second row were obtained using differential inference contrast (DIC) optic; the others were obtained without the DIC optic. […]

PR-A = PR-A mRNA expression by RT-PCR in treated YHES cells; type: cell-based, human; conditions: 8 h, 18 h and 36 h; TSA 10 μM, CDB 100 μM, NAC 10 mM; semi-quantitative RT-PCR
Description: (§2) The YHES cells were harvested by trypsinization and seeded in 12-well at 5×10^4 cells/well plates and were pretreated with E2 and P as described above. […] Total RNA was isolated from treated cells using TRIzol reagent (Invitrogen, Carlsbad, Calif.) according to the manufacturer's instructions. The integrity of total RNA was inspected on an agarose gel. One microgram of total RNA from each sample was treated with DNase I to remove potential DNA contamination and then reverse-transcribed using Superscript II Reverse Transcriptase (Invitrogen). First-strand cDNA obtained from RNA samples was stored at −80° C. until use. To measure the mRNA expression levels of AR, PR-A, PR-B, Fas and FasL in each cell culture, semi-quantitative PCR analysis was performed.
(§3) Quantitative real-time RT-PCR was carried out on an ABI 7900 DNA sequencer (Applied Biosystems), and monitored by SYBR Green I (Qiagen, Valencia, Calif.). The PCR products of the expected size were visualized on a 0.8% agarose gel. The relative mRNA level of each gene was calculated using relative quantitation of gene expression (Applied Biosystems, Foster City, Calif.) with 18s as an endogenous control. The reproducibility of the quantitative measurements was evaluated by two independent cDNA syntheses. The means and standard deviations of the replicated measurements were calculated and presented as mean ±s.d.

AR [2] = test: AR mRNA expression by RT-PCR in treated YHES cells; type: cell-based, human; conditions: for AR mRNA expression level vs untreated control: 8 h, 18 h and 36 h, TSA 10 μM, CDB 100 μM, NAC 10 mM, semi-quantitative RT-PCR; for AR expression: 36 h of treatment, real-time RT-PCR
Description: as §2, §3

[3] = tested on: YHES cells pretreated with H2O2; test: H2O2-induced cell proliferation, MTT assay; type: cell-based, human; conditions: H2O2 1 μM, 48 hours; for suppression of H2O2-induced cell proliferation: vs H2O2 only
Description: MTT assay was performed after 48 hours of treatment.
as §1
The addition of H202 was meant to mimic the oxidative stress as reported in endometriosis. […] RU486 suppressed cell proliferation by 75% at the concentration of 100 μM.

AR [4] = test: Western blot of AR protein in treated YHES cells; type: cell-based, human; conditions: 16 hrs; TSA 10 μM, CDB 100 μM, NAC 10 mM
Description: Western blot analysis was performed to measure protein expression of β-actin, ERα, ERβ, and AR. […] Whole cell lysate was prepared as previously described (44) by using RIPA lysis buffer containing 50 mM Tris, pH 7.4, 150 mM NaCl, 12 mM EDTA, 1% Triton X-100, 0.5% sodium deoxycholate, and 0.1% SDS. To avoid degradation, a protease inhibitor cocktail III (Sigma) was added at 2%. Total protein was quantified using a BCA protein assay kit (Pierce, Rockford, Ill.). Ten microgram of total protein was separated by electrophoresis on 10% SDS-polyacrylamide gels. The protein was then transferred onto PVDF membranes (Milipore, Bedford, Mass.). […] The blot was then subsequently incubated with primary antibody rabbit anti-human ERα (Santa Cruz Biotechnology, CA), rabbit anti-human ERβ (Zymed Laboratories, South San Francisco, Calif.), rabbit anti-β-actin (Cell Signaling Technology, Beverly, Mass.), or rabbit ant-human AR (Santa Cruz Biotechnology, CA), respectively, in blocking solution (5% nonfat dry milk plus PBS) for 2 hr at room temperature. After washing with PBS plus 0.5% Tween-20, the membranes were then incubated with the secondary antibody goat anti-rabbit IgG (H+L)-HRP (Santa Cruz Biotechnology, CA) at 1:8000 dilution in blocking solution for 2 h at room temperature. […]

PR-B = PR-B mRNA expression by RT-PCR in treated YHES cells; type: cell-based, human; conditions: 8 h, 18 h and 36 h; TSA 10 μM, CDB 100 μM, NAC 10 mM; semi-quantitative RT-PCR
Description: as §2, §3

Fas = Fas mRNA expression by RT-PCR in treated YHES cells; type: cell-based, human
Description: as §2, §3

endometrial cells = conditions: immortalized human endometrial stromal cells; cited from earlier work
[5] = tested on: endometrial stromal cells; conditions: in vitro; cited from earlier work
[6] = tested on: patients diagnosed with adenomyosis; test: Pilot study of off-label valproic acid in adenomyosis; type: in vivo, human; conditions: for relief of dysmenorrhea reported by patients: 3 patients
Description: After informed consent, we recruited three patients diagnosed with adenomyosis (FIG. 28). All three patients had moderate to severe dysmenorrehea. They were all married and parous, and had normal menstrual cycles (28-30 days). […] During the recruitment, all patients were offered the option of hysterectomy or the chance to try an experimental drug. They all chose to try the drug and were all given the full explanation of the experimental nature of this study and possible risks associated with it. Approval for this pilot study was obtained from the local ethics committee at Shanghai OB/GYN Hospital, Fudan University. The diagnosis of adenomyosis of all three patients was made based on symptomology, pelvic examination and vaginal ultrasound evaluation by experienced physicians (FIG. 28). […] The treatment was terminated at the end of the 3rd month after taking the drug and the patients were followed up for an additional 3 months. During treatment, clinical signs, symptoms and ultrasound evaluation were closely monitored. Blood counts and biochemistries including liver function tests, ammonium and coagulation studies were performed monthly.

[7] = Pilot study: safety, tolerability and laboratory monitoring; type: in vivo, human
Description: The diagnosis of adenomyosis of all three patients was made based on symptomology, pelvic examination and vaginal ultrasound evaluation by experienced physicians (FIG. 28). […] The treatment was terminated at the end of the 3rd month after taking the drug and the patients were followed up for an additional 3 months. During treatment, clinical signs, symptoms and ultrasound evaluation were closely monitored. Blood counts and biochemistries including liver function tests, ammonium and coagulation studies were performed monthly.

[8] = 18 and 36 h after the treatment

Compound: Nc1ncn([C@@H]2O[C@H](CO)[C@@H](O)[C@H]2O)c(=O)n1 [5-azacytidine]
- effect of use alone on growth and inflammation (endometriotic cells): some effect in suppression of growth (but not inflammation)

Compound: CC(=O)O[C@]1(C(C)=O)CC[C@H]2[C@@H]3CCC4=CC(=O)CCC4=C3[C@@H](c3ccc(N(C)C)cc3)C[C@@]21C [CDB, CDB-2914]
- effect on cell proliferation ([1]; 10 μM or lower (10, 1, 0.1 μM)): statistically non-significant inhibition of cell proliferation
- effect on cell proliferation ([1]; 100 μM (highest concentration)): significant suppression of cell proliferation
- cell morphology (YHES cells; 24 h after the treatment): signs of apparent apoptosis
- recovery judged by morphology (YHES cells): apparently recovered
- PR-A mRNA expression level vs untreated control (PR-A): increased
- AR mRNA expression level vs untreated control (AR [2]): increased
- AR expression (AR [2]): maintained the increased expression
- suppression of H2O2-induced cell proliferation ([3]; 100 μM): 49%
- AR protein level vs control group (AR [4]): increased
- PR-B mRNA expression level vs untreated control (PR-B): increased
- Fas expression (Fas; [8]): decreased
- Fas expression (Fas; 8 h after the treatment): increased

Compound: OO [H2O2]
- increased cell proliferation ([1]; 1 μM): 18%
- increased cell proliferation ([1]; 10 μM): 22%
- effect on cell proliferation ([1]; 100 μM (highest concentration)): induced inhibition of proliferation

Compound: C[C@]12CC[C@@H]3c4ccc(O)cc4C[C@@H](CCCCCCCCC[S+]([O-])CCCC(F)(F)C(F)(F)F)[C@H]3[C@@H]1CC[C@@H]2O (stereo partly shown) [ICI, ICI 182780]
- increase in proliferation as compared with the control group ([1]; 0.1 μM): about 40%
- effect on cell proliferation ([1]; across 100, 10, 1, 0.1 μM): no statistically significant reduction in proliferation
- effect on H2O2-induced cell proliferation ([3]; 100 μM): did not significantly inhibit

Compound: CC(=O)N[C@@H](CS)C(=O)O [NAC, N-acetylcysteine]
- suppression of proliferation ([1]; 10 mM): 35%
- suppression of proliferation ([1]; 30 mM): 50%
- recovery judged by morphology (YHES cells): apparently recovered
- PR-A mRNA expression level vs untreated control (PR-A): increased
- AR mRNA expression level vs untreated control (AR [2]): increased
- AR expression (AR [2]): maintained the increased expression
- suppression of H2O2-induced cell proliferation ([3]; 10 mM): 63%
- PR-B mRNA expression level vs untreated control (PR-B): increased
- Fas expression (Fas; [8]): decreased
- Fas expression (Fas; 8 h after the treatment): increased

Compound: CC#C[C@]1(O)CC[C@H]2[C@@H]3CCC4=CC(=O)CCC4=C3[C@@H](c3ccc(N(C)C)cc3)C[C@@]21C [RU486]
- reduction of cell proliferation as compared with controls ([1]; 100 μM): > 95%
- suppression of H2O2-induced cell proliferation ([3]; 100 μM): 75%

Compound: CCCC(CCC)C(=O)O [VPA, valproic acid]
- effect on cell cycle (endometrial cells): induce cell cycle arrest
- effect on proliferation [5]: suppressing proliferation of endometrial and endometriotic cells in vitro
- average reduction of uterus size ([6]; end of the 3-month treatment, three patients): 33%
- uterus size by physical examination ([6]; end of the 3rd month): slight reduction in uterus size in one patient but no change in the other two
- pelvic and ultrasound examinations ([6]; one month after taking VPA): no change in uterus size or other conditions
- relief of dysmenorrhea reported by patients ([6]; three months after taking the drug (end of treatment)): all three patients reported complete relief of pain without any need for pain-killers
- relief of dysmenorrhea reported by patients ([6]; three months after taking the drug (end of treatment), listed as valproic acid): all three recruited patients reported complete disappearance of dysmenorrhea
- dysmenorrhea reported by patients ([6]; three months after the discontinuation of the treatment): 2 patients reported disappearance of dysmenorrehea, but 1 reported the return of the same symptom
- relief of dysmenorrhea reported by patients ([6]; two months after taking VPA, oral 500 mg b.i.d. then t.i.d.): 2 patients reported complete relief of dysmenorrehea with no need for pain-killers, and 1 reported much relieved pain
- tolerability ([7]; 3-month oral VPA): well tolerated
- serum level of testosterone vs normal range ([7]; end of three month after taking VPA): within the normal range
- liver function and other biochemistries ([7]; monthly during treatment, all cases): remained normal
